Source: patent US12297176B2, “Compounds and methods for inhibiting EMT pathways to treat cancer, organ fibrosis and metabolic disorders” (University of Pittsburgh—Of the Commonwealth System of …, priority 2017, dated 2025)

How the values were obtained:
[1] = test system: three melanoma and one breast cancer cell lines; experiment: Cell proliferation after 5 days of incubation; format: cell-based
Procedure: (§1) FIGS. 4A-4C. Inhibition of cell migration, proliferation and resistance to therapy by CPADAML16. FIG. 4A. Cell monolayer scratch depicting inhibition of cell migration by CPADAML16. FIG. 4B. Effect on cell proliferation measured after 5 days of incubation. FIG. 4C. Cell response to doxorubicin was measured in the presence and absence of CPADAML16. Data in FIG. 4C represent average of three determinations ±SE.

[2] = test system: Akt; experiment: Phosphorylation of Akt; format: cell-based
Description: (§2) FIGS. 2A-2D. Putative mechanism. FIG. 2A. Effect of CPADAML16 on Hippo pathway transduces YAP, TAZ and TEAD measured by Western blot. FIG. 2B. Possible signaling pathways leading to degradation of TAZ. The effects of CPADAML16 on the Mst/Lats kinases and the Akt/GSK3 beta axis are shown in FIGS. 2C and 2D, respectively.
(§3) There are three possibilities by which this might occur (FIG. 2B): 1) through activation Mst/Lats, 2) inhibition of Akt or 3) activation of AMPK. […] In light of recent findings that TAZ is also target of the GSK3 beta associated destruction complex, we reasoned that CPADAML16 may act directly or indirectly to activate this complex. […] These effects were concentration and time dependent and valid in various cell lines […]. […] Together these findings identified AMPK as a novel target of CPADAML16, shedding light on a new mechanism by which this compound could signal for TAZ degradation and inhibition of Hippo signaling.

[3] = test system: TGF beta signaling; experiment: TGF beta pathway luciferase reporter in 293 cells; format: cell-based; conditions: 24 hours
Procedure: (§4) FIGS. 1A-1C. CPADAML16 is a common inhibitor of Wnt (FIG. 1C), TGF beta (FIG. 1B), and Hippo (FIG. 1A). 293 cells were transfected with luciferase reporters corresponding to each pathway and then exposed to CPADAML16, the Wnt inhibitor Pyrvinium (PYR) or the TGF beta inhibitor SB-431 at the indicated concentrations. After 24 hours, the cells were lysed and luciferase activity measured. Data represents average of three replicates ±SE.
(§5) By comparison, none of Wnt or TGF beta inhibitors had affected the Hippo pathway reporter. Based on this, CPADAML16 may represent a unique candidate molecule to target simultaneously the Hippo, Wnt and TGF beta pathways.

[4] = test system: Wnt signaling; experiment: Wnt pathway luciferase reporter in 293 cells; format: cell-based; conditions: 24 hours
Procedure: as §4, §5

[5] = test system: TAZ; experiment: Western blot of Hippo pathway transducers: TAZ; format: cell-based
Description: as §2, §3

[6] = test system: melanoma cell; experiment: Cell response to doxorubicin with and without compound; format: cell-based
Procedure: as §1

[7] = test system: melanoma cells WM266; experiment: Anti-tumor activity in mice bearing xenograft tumors; format: in vivo, nude mice (strain CD1); conditions: 20 mg/Kg, 3 injections, end of experiment
Procedure: (§6) FIGS. 5A-5B. Effect of CPADAML16 (20 mg/kg) on tumor growth (FIG. 5A) and body weight (FIG. 5B). Data represents 7 replicates ±SE.
(§7) Experiments were carried out to analyse the anti-tumor activity and safety of CPADAML16 in mice bearing xenograft tumors. For this, nude mice (strain CD1) were sub-cutaneously inoculated with melanoma cells WM266 and after tumors became palpable, they were randomized into control and treatment groups and received 3 injections (starting on day 15 and separated by three days) of vehicle (control group) or CPADAML16 dissolved in the vehicle solution (treatment groups). Tumor volumes and body weight were measured and mice evaluated for signs of toxicity on a daily basis. At the end of experiments, the animals were sacrificed and tumors harvested to determine if molecular targets of CPADAML16 were altered.

[8] = test system: Hippo pathway; experiment: Hippo pathway luciferase reporter in 293 cells; format: cell-based; conditions: 24 hours
Procedure: as §4
The present disclosure concerns the discovery of small molecules inhibitors of major EMT pathways particularly those mediated by TGF beta, Wnt and Hippo. These pathways are known to play key roles in the induction of epithelial-mesenchymal transition (EMT) a cellular process responsible for cancer metastasis, resistance to therapy and organ fibrosis. […] In a search for putative inhibitors of the Hippo pathway, a luciferase reporter system was used to screen a series of chemical compounds. […] CPADAML16 suppressed cancer cell ability to undergo EMT, to proliferate and to become drug resistant. Investigation of the underlying mechanism led to the finding that CPADAML16 induces degradation of the Hippo transducer TAZ mainly by activating AMPK upstream of the GSK3 beta associated degradation complex. CPADAML16 exerted a strong anti-tumor activity in a xenograft mice model with no noticeable toxicity. […]

[9] = test system: GSK3 beta; experiment: Phosphorylation of GSK3; format: cell-based; conditions: inhibited phosphorylation = induced activation
Description: as §2, §3

[10] = test system: AMPK; experiment: Phosphorylation of AMPK at threonine 172; format: cell-based
Description: FIGS. 3A-3G. Effect of CPADAML16 on […]. FIGS. 3A and 3B. Dose and time dependent effects of CPADAML16 on phosphorylation of AMPK. FIG. 3C. Effect of AICAR on phosphorylation of AMPK. FIG. 3D. Effect of CPADAML16 on phosphorylation of AMPK downstream target ACC. FIGS. 3E-3G. Confirmation CPADAML16-induced AMPK phosphorylation in different cell lines.
as §3

[11] = test system: YAP; experiment: Western blot of Hippo pathway transducers: YAP; format: cell-based
Description: as §2, §3

[12] = test system: cell migration; experiment: Cell monolayer scratch, cell migration; format: cell-based
Procedure: as §1

[13] = test system: Lats1; experiment: Activation (phosphorylation) of Hippo core kinase Lats1; format: cell-based
Description: as §2, §3

[14] = test system: TEAD; experiment: Western blot of Hippo pathway transducers: TEAD; format: cell-based
Description: as §2, §3

[15] = Body weight and signs of toxicity in xenograft mice; format: in vivo, nude mice (strain CD1); conditions: WM266 xenograft mice
Procedure: as §6, §7

[16] = test system: MST1; experiment: Activation (phosphorylation) of Hippo core kinase MST1; format: cell-based
Description: as §2, §3

## CCCCCOc1ccccc1C(=O)c1cc(C(=O)OCC)c(=O)n(Cc2ccccc2)c1 [CPADAML16, 3-Ethoxycarbonyl-5-(o-pentyloxybenzoyl)-1-(benzyl)pyridin-2-one]
[1]
  proliferation: strongly inhibits
[2]
  phosphorylation of Akt: not due to reduced phosphorylation of Akt
[3]
  TGF beta signaling reporter luciferase activity: remarkably inhibited
[4]
  Wnt signaling reporter luciferase activity: remarkably inhibited
[5]
  Taz levels: reduced in a concentration dependent manner
[6]
  melanoma cell response to doxorubicin in the presence of the compound: significantly enhanced
[7]
  tumor growth inhibition: about 90%
[8]
  Hippo pathway reporter luciferase activity: remarkable inhibitory activity
[9]
  phosphorylation of GSK3: inhibited phosphorylation
[10]
  potency of AMPK activation compared with AICAR: more potent than AICAR
[10]; concentration and time dependent, various cell lines
  phosphorylation of AMPK at threonine 172: strongly induced phosphorylation
[11]
  YAP levels: largely unaltered
[12]
  cell migration: strongly inhibits
[13]
  phosphorylation of Lats1: did not affected phosphorylation
[14]
  TEAD levels: largely unaltered
[15]; 20 mg/kg
  body weight: did not change significantly
[15]; evaluated daily
  health / signs of toxicity: in good health throughout the experiment
[16]
  phosphorylation of MST1: did not affected phosphorylation
